Measurements taken from patent US20260274828A1, “BROAD SPECTRUM ANTIFUNGAL KETO-ALKYL-PYRIDINIUM COMPOUNDS” (priority 2023, published 2026).
Entries after “also recorded” stand apart in the source; their conditions may differ. Blank lines part the entries; values can stand above or below the molecule they belong to.

What was measured:
[1] = system: A. fumigatus; assay: Checkerboard assay with clinical antifungals (FICI); type: cell-based, Aspergillus fumigatus; details: for MIC: Aspergillus fumigatus, read-out: MICA (MIC of each drug alone); for MIC / MICC (MIC in combination): checkerboard B x Voriconazole
Description: (§1) To determine if compounds interacted with clinically used antifungal drugs, checkerboard assays were performed and fractional inhibitory concentration indices were determined. […] The FICI for compound B and fluconazole is 8.25 due to the 8-fold increase in fluconazole concentration in the combination; however, the concentration of compound B at FIC is reduced by 4-fold relative to compound B as a single agent (Table 3).

[2] = system: A. fumigatus; assay: Planktonic MIC, CLSI guidelines; type: cell-based; details: Aspergillus fumigatus
Description: (§2) Minimum inhibitory concentrations were determined using CLSI guidelines (Beattie & Krysan, 2021; Wiederhold, 2021). All yeasts were cultured overnight in 3 mL YPD at 30° C., then washed twice in sterile PBS. Two-fold serial dilutions of each compound were prepared in RMPI+MOPS pH 7 (Gibco RPMI 1640 with L-glutamine [11875-093] and 0.165M 352 MOPS), then 1×10^3 cells were added per well. Plates were incubated at 37° C. for 24 hours (C. albicans and S. cerevisiae) or 72 hours (C. neoformans). For A. fumigatus and F. oxysporum wells were inoculated with 1.25×10^4 conidia. Plates were incubated at 37° C. for 48 hours for A. fumigatus and 72 hours for F. oxysporum. All MICs are defined as the well with complete growth inhibition as determined by visual inspection with the exception of MICs of fluconazole against C. albicans where the MIC is defined as at least 50% reduction in growth compared to the control.

[3] = system: C. albicans; assay: Planktonic MIC, CLSI guidelines; type: cell-based, Candida albicans
Description: as §2

[4] = system: C. albicans; assay: Checkerboard assay with clinical antifungals (FICI); type: cell-based, Candida albicans; details: for MIC: Candida albicans, read-out: MICA (MIC of each drug alone)
Description: as §1

[5] = system: C. albicans; details: Yamashita et al., 2019; cited from earlier work
[6] = system: C. auris; details: cited from earlier work
[7] = system: human cell lines; details: Kim et al., 2021; cited from earlier work
[8] = system: medically important yeasts and molds; assay: Antifungal activity, general statements; type: cell-based
Description: as §2

[9] = system: red blood cells; assay: Red blood cell lysis assay; type: cell-based, sheep; details: 2 h, normalized to max lysis by triton-x
Description: Hemolysis assays were performed with defibrinated sheep's blood (Lampire, Cat #7239001). Blood was washed three times with PBS then resuspended to about 50% hematocrit in PBS. A two-fold dilution series of the compounds in 200 μL PBS with equal DMSO concentration across the series, then red blood cells were added with a final concentration of 2% hematocrit. Cells were incubated at RT for 2 hours in a v-bottom microtiter plate, then plates were spun down and supernatant was transferred to a flat bottom microtiter plate for absorbance measurement at 570 nm. Compounds were tested in technical triplicate in at least two independent assays performed on different days.

[10] = system: A. fumigatus CEA10 hyphae; assay: Metabolic activity of hyphae/biofilms (resazurin); type: cell-based; details: Aspergillus fumigatus, CEA10HYPHAE, 24 h pre-incubation, 24 h exposure, read-out: hyphal metabolic activity IC50
From the text: (§3) CLSI testing of antifungal activity of molds is based on inoculation with conidia and, therefore, measures inhibition of germination (Widerhold, 2021). For example, voriconazole is the gold standard for treatment of pulmonary infection and inhibits germination. The most important A. fumigatus infection that requires non-systemic therapy is fungal keratitis (Hoffman et al., 2022). At the time of clinical presentation, A. fumigatus is exclusively in the hyphal form. […] A. fumigatus CEA10 was incubated for 24 hours prior to exposure to a dilution series of compound B or C for an additional 24 hours. The metabolic activity of the cultures was determined using resazurin as previously described (Mao et al., 2020). […] To further characterize the mode of action of the KAPs against A. fumigatus hyphae, CEA10 was treated with compound B for 24 hours and then the cells were stained with propidium iodide, a dye that is excluded from cells with intact membranes (FIG. 2D).

[11] = system: C. auris; assay: Planktonic MIC, CLSI guidelines; type: cell-based, Candida auris; details: Candidozyma auris
Description: as §2

[12] = system: P. aeruginosa; assay: Antibacterial MIC; type: cell-based, Pseudomonas aeruginosa
[13] = system: S. aureus; assay: Antibacterial MIC; type: cell-based; details: Staphylococcus aureus; strain Newman
[14] = system: A. fumigatus CEA10 hyphal cells; assay: Propidium iodide staining and DIC imaging of hyphae; type: cell-based, Aspergillus fumigatus; details: 16 μg/mL, 24 hours
From the text: as §3

[15] = system: F. oxysporum; assay: Planktonic MIC, CLSI guidelines; type: cell-based; details: Fusarium oxysporum; strain DUMC Fo
Description: as §2

[16] = system: C. glabrata; assay: Planktonic MIC, CLSI guidelines; type: cell-based; details: Nakaseomyces glabratus; strain KK2001
Description: as §2

[17] = system: C. neoformans; assay: Planktonic MIC, CLSI guidelines; type: cell-based; details: Cryptococcus neoformans
Description: as §2

[18] = system: C. albicans; assay: Planktonic MIC, CLSI guidelines; type: cell-based, Candida albicans; details: data not shown
[19] = system: HepG2 cells; assay: Mammalian cell culture toxicity assay (LDH release and XTT); type: cell-based, human
Description: HepG2 cells (ATCC, #) were maintained and cultured in HepG2 media (DMEM (Gibco, Cat #11965-092) with 5% FBS, 20 mM Glutamine, and Penicillin/Streptomycin) at 37° C. with 5% CO2. Cells were seeded in 96-well plates at a density of 1.25×10^4 cells/well and incubated overnight at 37° C. with 5% CO2, then media was removed and replaced with media containing a two-fold dilution series of compounds with equal DMSO concentrations across all wells including no compound controls. Cells were incubated for an additional 24 hours. Supernatant was removed and used to quantify lactate dehydrogenase release using the CyQuant LDH assay kit (Invitrogen, Cat #C20300) following the manufacturer's directions. LDH signal was normalized to a max lysis control. The remaining cells were then used to quantify cellular metabolism by XTT. Briefly, cells were washed, then 0.9 mg/mL XTT (Sigma, CAT #X4626)+320 μg/mL PMS ([…] methosulfate; Sigma, Cat #P9625) in HepG2 media was added to each well. Plates were incubated at 37° C., with 5% CO2 for 2 hours, then absorbance was measured at 490 nm.

[20] = A. fumigatus CEA10, Table 4, read-out: A. fumigatus MIC
[21] = Candida albicans, C. albicans SC5314, Table 4, read-out: C. albicans MIC
[22] = checkerboard B x Amphotericin B

SMILES: C[C@@H](c1ncncc1F)[C@](O)(Cn1cncn1)c1ccc(F)cc1F [Voriconazole, reference compound]
- MIC [1]: 0.25 µg/mL
- MICC (MIC in combination) [1]: 0.125 µg/mL

SMILES: OC(Cn1cncn1)(Cn1cncn1)c1ccc(F)cc1F [Fluconazole, reference compound]
- MIC ([4]; checkerboard B x Fluconazole): 0.125 µg/mL
- MICC (MIC in combination) ([4]; checkerboard B x Fluconazole): 1 µg/mL
- increase in fluconazole concentration in the combination ([4]; combination with compound B): 8 fold

SMILES: C[C@@H]1[C@H](O)[C@@H](C)/C=C/C=C/C=C/C=C/C=C/C=C/C=C/[C@H](O[C@@H]2O[C@H](C)[C@@H](O)[C@H](N)[C@@H]2O)C[C@@H]2O[C@](O)(C[C@@H](O)C[C@@H](O)[C@H](O)CC[C@@H](O)C[C@@H](O)CC(=O)O[C@H]1C)C[C@H](O)[C@H]2C(=O)O [Amphotericin B, reference compound]
- MICA (MIC of each drug alone) [4, 22]: 0.5 µg/mL
- MICC (MIC in combination) [4, 22]: 0.25 µg/mL

SMILES: N=C(N)c1ccc(OCCCC2CCN(CCCOc3ccc(C(=N)N)cc3)CC2)cc1 [Compound T-2307]
- MIC on 2% glycerol compared to 2% dextrose [5]: decreases dramatically

SMILES: Cc1cc[n+](CC(=O)c2ccc(-c3ccc(Oc4ccccc4)cc3)cc2)cc1.[Cl-] [KAP-3]
- MIC [2, 20]: 8 µg/mL
- MIC [3, 21]: 4 µg/mL

SMILES: N=C(NCCCCCCNC(=N)NC(=N)Nc1ccc(Cl)cc1)NC(=N)Nc1ccc(Cl)cc1.O=C(O)[C@H](O)[C@@H](O)[C@H](O)[C@H](O)CO.O=C(O)[C@H](O)[C@@H](O)[C@H](O)[C@H](O)CO [chlorhexidine gluconate]
- activity against C. auris colonization of skin ([6]; comparison stated in Example 2): minimally active

SMILES: CCCCCCCCCCCCCCCC[n+]1ccccc1 [cetylpyridinium chloride]
- LD50, toxicity against human cell lines [7]: 6 µg/mL

SMILES: COc1ccc(F)c(-c2ccc(C(=O)C[n+]3ccc(N)cc3)cc2)c1.[Br-] [Compound C]
- antifungal activity [8]: inactive; also recorded: no antifungal activity
- red blood cell lysis LD50 [9]: > 1000 µg/mL

SMILES: Cc1cc[n+](CC(=O)c2ccc(-c3ccc(Oc4ccccc4)cc3)cc2)cc1.[Br-] [Compound B]
- IC50 [10]: 3.9 µg/mL
- MIC [1]: 16 µg/mL
- FICI ([1]; B with Voriconazole): 0.625
- MICC (MIC in combination) [1]: 2 µg/mL
- interaction with clinical antifungal ([1]; with voriconazole): indifferent (2 < FICI < 4 = indifferent)
- MIC ([11]; strain 0381, drug susceptible): 16 µg/mL
- MIC ([11]; strain 0390, multi-drug resistant): 4 µg/mL
- activity compared to cetylpyridinium chloride ([12]; P. aeruginosa): more active
- MIC ([12]; Pseudomonas aeruginosa, strain PAO1): 32 µg/mL
- MIC [13]: 16 µg/mL
- DIC images of hyphae [14]: loss of refractivity and fragmentation of hyphae
- propidium iodide staining [14]: uniform uptake of dye
- MIC [15]: 16 µg/mL
- MIC ([2]; strain AF293, read-out: MIC): 1 µg/mL
- MIC ([2]; strain CEA10, read-out: MIC): 8 µg/mL
- MIC ([2]; strain Cas^R, read-out: MIC): 16 µg/mL
- MIC ([2]; strain SPF98, read-out: MIC): 16 µg/mL
- MIC [16]: 1 µg/mL
- MIC ([17]; strain DUMC 118.00): 2 µg/mL
- MIC ([17]; strain DUMC 122.01): 4 µg/mL
- MIC ([17]; strain H99): 2 µg/mL
- FICI ([4]; B with Amphotericin B): 0.75
- FICI ([4]; B with Fluconazole): 8.25
- MIC [4, 22]: 4 µg/mL
- MIC ([4]; checkerboard B x Fluconazole): 16 µg/mL
- MICC (MIC in combination) [4, 22]: 1 µg/mL
- MICC (MIC in combination) ([4]; checkerboard B x Fluconazole): 4 µg/mL
- reduction of concentration at FIC relative to single agent ([4]; combination with fluconazole): 4 fold
- interaction with clinical antifungal ([4]; with amphotericin B): indifferent (2 < FICI < 4 = indifferent)
- interaction with clinical antifungal ([4]; with caspofungin): indifferent (2 < FICI < 4 = indifferent)
- interaction with clinical antifungal ([4]; with fluconazole): antagonistic
- change in MIC with glycerol instead of glucose as carbon source [18]: not observed
- LD50, cell lysis assay ([19]; HepG2, LDH release, 24 h): 9 µg/mL
- LD50, metabolic activity assay ([19]; HepG2, XTT, 24 h): 20 µg/mL
- LD50, toxicity against human cell lines ([19]; readout not given): 20 µg/mL
- red blood cell lysis LD50 [9]: 78.6 µg/mL
- MIC ([3]; Candida albicans, strain SC5314, read-out: MIC): 8 µg/mL
- MIC ([3]; Candida albicans, strain TWO #15, fluconazole-resistant, read-out: MIC): 4 µg/mL
- MIC ([3]; strain TWO #17, fluconazole-resistant): 4 µg/mL

SMILES: [H]/N=C(\N/C(=N/[H])NCCCCCCNC(=N)NC(=N)Nc1ccc(Cl)cc1)Nc1ccc(Cl)cc1 [2% chlorhexidine, chlorhexidine]
- reduction of fungal burden of colonized porcine skin ([6]; 72 hour experiment, three daily applications, Johnson et al., 2021): about 0.5 log10

More lines, now with the values ahead:

- MIC [2, 20]: 16 µg/mL
- MIC [3, 21]: 1 µg/mL
SMILES: Nc1cc[n+](CC(=O)c2ccc3c(c2)OC(c2cccc(C(F)(F)F)c2)(c2cccc(C(F)(F)F)c2)O3)cc1.[Cl-] [KAP-1]

- MIC [2, 20]: 16 µg/mL
- MIC [3, 21]: 8 µg/mL
SMILES: Cc1ccc(-c2ccc(C(=O)C[n+]3ccc(N)cc3)cc2)c2ccccc12.[Cl-] [KAP-2]

- MIC [2, 20]: > 64 µg/mL
SMILES: Nc1cc[n+](CC(=O)c2ccc(Oc3ccccc3)cc2)cc1.[Cl-] [KAP-5]

- MIC [2, 20]: 16 µg/mL
- MIC [3, 21]: 4 µg/mL
SMILES: Cc1cc[n+](CC(=O)c2ccc(-c3ccc(Oc4ccc(F)cc4)cc3)cc2)cc1.[Cl-] [KAP-4]
